Results taken from article PMC11801377, “A uniquely efficacious type of CFTR corrector with complementary mode of action” (Science Advances, 2024).

Molecular target: T1, F508del-CFTR-G550E.R553M.R555K (3TS) (Homo sapiens, UniProt P13569, DEL508-508/G550E/R553M/R555K)
T1 construct: expressed in transfected cells; host or cells: T-REx HEK293
Assay: CFTR immunoblotting in HEK-TREx cells expressing thermostabilized F508del-CFTR (3TS)
Format: cell-based
Conditions: 48 hours, IDOR-3 2 μM, IDOR-4 0.4 μM, TEZ 2 μM, ELX 0.4 μM
Source text: The human CFTR expressing HEK cell pools with the mutations described below were generated by integrase-mediated homologous recombination of the CFTR sequence into the T-REx HEK293 background (Thermo Fisher Scientific). This expression system allows the tetracycline-inducible expression of genes of interest from one defined insertion site. Parental T-REx-HEK293 cells were cultivated in growth medium: Dulbecco’s modified Eagle’s medium + GlutaMAX-I (#31966, Life Technologies), 10% dialyzed FBS (Gibco, #26400), penicillin (100 U/ml), streptomycin (100 μg/ml), hygromycin B (0.1 mg/ml; Life Technologies), blasticidin (5 μg/ml; Invitrogen, #R210-01), and 0.1 mM nonessential amino acid solution (Invitrogen, #11140-035). Recombinant T-REx-HEK-CFTR cells were generated by lipofectamine transfection (Life Technologies) of plasmids containing mutated versions of CFTR (RefSeq NM_000492) and then cultivated in selection medium [growth medium containing Geneticin (1 mg/ml) (Invitrogen, #10131-027) instead of hygromycin]. The plasmid constructs were synthetized by GENEART (Thermo Fisher Scientific) and designed with the WT CFTR intron 5 to 6 (880 nucleotides) to prevent leaky expression issues during the cloning process in bacteria. For evaluation of corrector efficacies on second-site suppressor mutants, the following mutations were introduced into the CFTR.F508del gene sequence: G550E.R553M.R555K and G550E.R553M.R555K.R1070W. The following plasmids expressing different truncated versions of CFTR.F508del gene were generated: K381X, delF508-M837X, delF508-E1172X, and M837-L1480. For the evaluation of different binding sites by site-directed mutagenesis, the following mutations were introduced individually into the CFTR.F508del gene: del14-21, K14A, K14A.R80V, K14A.Y84F, L15W, R1102A, and L195W. Deletion of the peptide stretching amino acids 14 to 21 was also introduced into truncated K381X: del14-21.K381X. […]

T1 sequence (P13569 with tags, fused parts or gaps DEL508-508/G550E/R553M/R555K): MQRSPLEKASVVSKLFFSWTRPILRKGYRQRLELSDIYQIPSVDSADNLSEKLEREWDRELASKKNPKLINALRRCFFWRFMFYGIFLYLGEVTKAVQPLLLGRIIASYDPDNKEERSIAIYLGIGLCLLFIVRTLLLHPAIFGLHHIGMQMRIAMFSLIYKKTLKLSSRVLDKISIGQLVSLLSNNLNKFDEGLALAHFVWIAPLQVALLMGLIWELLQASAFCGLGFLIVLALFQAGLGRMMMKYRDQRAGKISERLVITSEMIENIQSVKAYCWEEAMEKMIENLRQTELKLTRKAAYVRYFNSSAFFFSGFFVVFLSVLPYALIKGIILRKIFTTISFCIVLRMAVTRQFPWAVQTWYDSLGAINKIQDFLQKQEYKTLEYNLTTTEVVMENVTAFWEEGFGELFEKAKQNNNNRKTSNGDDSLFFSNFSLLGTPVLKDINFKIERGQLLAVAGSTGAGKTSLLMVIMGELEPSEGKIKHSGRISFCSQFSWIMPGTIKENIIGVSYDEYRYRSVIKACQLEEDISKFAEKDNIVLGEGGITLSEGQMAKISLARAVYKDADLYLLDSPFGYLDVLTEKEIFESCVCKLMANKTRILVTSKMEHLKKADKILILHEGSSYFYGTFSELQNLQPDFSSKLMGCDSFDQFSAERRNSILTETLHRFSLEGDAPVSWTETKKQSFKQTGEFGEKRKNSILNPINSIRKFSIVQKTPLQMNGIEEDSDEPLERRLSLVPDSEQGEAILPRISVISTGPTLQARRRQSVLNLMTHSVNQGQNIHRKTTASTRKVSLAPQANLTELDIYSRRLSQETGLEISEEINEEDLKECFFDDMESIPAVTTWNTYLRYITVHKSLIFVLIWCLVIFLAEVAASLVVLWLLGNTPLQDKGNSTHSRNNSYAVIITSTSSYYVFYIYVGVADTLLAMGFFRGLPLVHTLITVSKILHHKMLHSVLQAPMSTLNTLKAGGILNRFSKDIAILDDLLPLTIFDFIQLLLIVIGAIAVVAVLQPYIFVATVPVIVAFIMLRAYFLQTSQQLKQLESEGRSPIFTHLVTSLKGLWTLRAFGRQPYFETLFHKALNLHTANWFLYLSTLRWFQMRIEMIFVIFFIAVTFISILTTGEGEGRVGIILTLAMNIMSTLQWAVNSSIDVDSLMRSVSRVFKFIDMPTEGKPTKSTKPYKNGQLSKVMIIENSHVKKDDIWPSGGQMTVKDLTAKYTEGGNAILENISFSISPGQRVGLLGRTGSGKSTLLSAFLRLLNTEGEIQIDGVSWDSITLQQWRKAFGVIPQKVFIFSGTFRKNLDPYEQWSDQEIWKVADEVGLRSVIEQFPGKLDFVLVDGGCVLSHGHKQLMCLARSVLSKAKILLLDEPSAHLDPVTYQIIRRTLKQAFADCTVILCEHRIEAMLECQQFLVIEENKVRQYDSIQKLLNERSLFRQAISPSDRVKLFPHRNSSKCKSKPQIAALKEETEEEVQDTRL

Row | improvement of C-band expression after introduction of 3TS mutations | SMILES
1 | ~ 4 fold | Cc1nn(C)cc1S(=O)(=O)NC(=O)c1ccc(-n2ccc(OCC(C)(C)C(F)(F)F)n2)nc1N1C[C@@H](C)CC1(C)C [ELX, elexacaftor]
2 | ~ 1.5 fold | COc1cc(CCNC(=O)C2CC(=O)N(C)C(CC(C)C)C(=O)N3CCCCC3C(=O)NC(Cc3ccccc3)COc3ccc4ncc(F)cc4c3C(=O)N2)on1 (stereo not drawn) [IDOR-3]
3 | ~ 4 fold | CC(C)(CO)c1cc2cc(NC(=O)C3(c4ccc5c(c4)OC(F)(F)O5)CC3)c(F)cc2n1C[C@@H](O)CO [TEZ, tezacaftor]
